What is called IC50 is the concentration that gives 50% inhibition.

Consider three compounds from article PMC4494942, “Sorafenib and DE605, a novel c-Met inhibitor, synergistically suppress hepatocellular carcinoma” (Oncotarget, 2015).

Test [1] has as its system MHCC97H human HCC xenograft model and HuPrime model with human HCC explants. The note with it: cited from earlier work.
The test system of test [2] is PLC/PRF/5 cells. Nature of the test: MTT cell viability assay, PLC/PRF/5. The note with it: PLC/PRF/5, 72 h. Format: cell-based, human.
Method: (§1) Cells were seeded in 96-well plates (3,000 cells/well) and incubated overnight for attachment, and were then treated with indicated agents in 10% FBS-supplemented medium for 72 hours. The medium was replaced with MTT (0.5 mg/ml) at 37°C for 2 hours. After removal of medium, the cells were lysed with 200 μl per well dimethyl sulfoxide (DMSO), and absorbance at 570 nm was measured and the values of 50% inhibition concentration (IC50) for each drug were determined. Cell viability was evaluated by measuring the optical density at 570 nm using an Automated Microplate Reader (Bio-Tek, USA). The percentage of viable cells was calculated using the following formula: cell viability (%) = (OD of treated cells/OD of control cells) × 100. All assays were performed in triplicate with at least 3 independent experiments.
The subject of another test is HepG2 cells. Put plainly: MTT cell viability assay, HepG2. It counts as cell-based. The note with it: Homo sapiens, HepG2, 72 h.
A further test concerns HuH7 cells. Put plainly: MTT cell viability assay, HuH7. It counts as cell-based. The note with it: Homo sapiens, Huh-7, HuH7, 72 h.
Test [3] deals with PLC/PRF/5 cells. Put plainly: cell-cycle distribution by flow cytometry. The note with it: PLC/PRF/5, 72 h, single agent. Format: cell-based, human. The protocol:
As sorafenib and c-Met inhibitors reportedly induce apoptosis in cancer cells, we examined the impact of our drug combination on programmed cell death. First, the effect of co-administration of DE605 and sorafenib on cell-cycle distribution was analyzed by flow cytometric analysis.
Figure 3 Effects of sorafenib in combination with DE605 on cell-cycle progression in PLC/PRF/5 cells (A) PLC/PRF/5 cells were treated with the indicated drugs for 72 hours, and cell-cycle distribution was analyzed by flow cytometry. (B) Statistical analysis of sub-G1 phase in PLC/PRF/5 cells exposed to DMSO, sorafenib alone, DE605 alone, or in sorafenib/DE605 combination. Data, mean ± SD (n = 3).
After drug treatment, the cells were harvested by trypsinization, washed with PBS, then pellets were resuspended and fixed in ethanol (70%, v/v) at −20°C overnight, and washed once with PBS. After centrifugation, the cells were incubated for 15 minutes at room temperature in 0.1 ml of phosphate-citric acid buffer. Cells were stained with propidium iodide staining buffer containing Triton X-100 (0.1%, v/v), RNase A (100 μg/ml), and propidium iodide (80 μg/ml) for 30 minutes in the dark. Cell-cycle distribution was analyzed by flow cytometry with CellQuest software (Becton Dickinson).
(A flow cytometer gives signals particle by particle.)

Another test has as its system Hep3B cells. Nature of the test: MTT cell viability assay, Hep3B. The note with it: Homo sapiens, 72 h, read-out: cell viability IC50.
The test system of test [4] is PLC/PRF/5 tumor xenografts. Put plainly: PLC/PRF/5 tumor xenograft model. The note with it: oral, qd, 28 days; sorafenib 60 mg/kg, DE605 80 mg/kg; versus control group.
Method: (B) body weights were measured twice per week, and are expressed as mean ± SD. (C-D) IHC analysis of intratumoral proliferation in PLC/PRF/5 xenograft tumors. Tumors were harvested and paraffin-embedded tumor tissues were subjected to immunostaining for Ki-67 (C) and TUNEL (D). Images were captured by Zeiss Axioskop-2 microscope under 200× magnification. Scale bar, 100 μm.
All surgery was performed under sodium pentobarbital anesthesia, and all efforts were made to minimize suffering. Female athymic nude mice of 4–5 weeks of age were purchased from Shanghai SLAC Laboratory Animal Co., Ltd. (Shanghai, China) and were housed in the Animal Resource Facility. […] Tumors were monitored twice weekly. As previously described [54], tumor size was measured on two axes with the aid of Vernier calipers and tumor volume (mm^3) was calculated using the formula: 1/2(L × W^2) where L is the longest and W is the shortest axis. […] For tumor growth inhibition (TGI), the antitumor effects are calculated by dividing the tumor volumes from treatment groups by those of the control groups and multiplied by 100. […]
The type of cell death (necrosis/apoptosis) was evaluated by the terminal deoxynucleotidyl transferase-mediated deoxyuridine biotin nick-end labeling (TUNEL) assay with an Apo-Direct kit (Pharmingen, San Diego, CA) as previously reported [55]. […]

Method for Hep3B cells: as §1
Method for HepG2 cells: as §1
Method for HuH7 cells: as §1

As to `CN1CCC(COc2cnc(-c3cccc(Cn4nc(-c5cccc(C#N)c5)ccc4=O)c3)nc2)CC1` [MSC2156119J], the “efficacy of combination with sorafenib” value in test [1] is “did not improve efficacy”.

Consider `CNC(=O)c1cc(Oc2ccc(NC(=O)Nc3ccc(Cl)c(C(F)(F)F)c3)cc2)ccn1` [sorafenib], for which the IC50 in the test on PLC/PRF/5 cells [2] (Homo sapiens, MTT) is 6.7 µM; in the test with HepG2 cells, 3.3 µM; in the test on HuH7 cells it was 2.4 µM; in the test on Hep3B cells, 10.5 µM. Moreover, the cell-cycle arrest entry in the test with PLC/PRF/5 cells [3] is reported as “no appreciable cell-cycle arrest”. Besides, the “tumor growth inhibition (TGI)” value in test [4] is 17.3%.

On to `O=C1NC(=O)[C@@H](c2cn3c4c(cccc24)CCC3)[C@@H]1c1c[nH]c2ccccc12` [tivantinib], for which the “interaction with sorafenib on cell viability (combination index)” value in the test with PLC/PRF/5 cells [2] (tivantinib 0.25 and 0.5 μM in combination with sorafenib) is recorded as “synergistic effect”.
